Where a name gives a salt, the structure may show the parent alone.

This assay addresses T1, TYK2 kinase domain (Homo sapiens, UniProt P29597).
T1 construct: The activity of the isolated JAK1, JAK2 or TYK2 kinase domain was measured
T1 sequence (P29597 897-1176 limits assumed): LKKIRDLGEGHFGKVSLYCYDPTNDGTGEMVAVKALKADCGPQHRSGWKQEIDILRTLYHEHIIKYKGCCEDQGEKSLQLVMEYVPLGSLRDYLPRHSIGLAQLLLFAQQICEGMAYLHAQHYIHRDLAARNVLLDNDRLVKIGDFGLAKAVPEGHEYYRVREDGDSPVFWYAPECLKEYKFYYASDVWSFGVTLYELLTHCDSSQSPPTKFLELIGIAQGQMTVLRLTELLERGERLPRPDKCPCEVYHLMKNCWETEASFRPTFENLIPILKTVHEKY
Nature of the assay: JAK1, JAK2 and TYK2 Inhibition Assay Protocol (Example A): TYK2 kinase domain, Caliper LabChip peptide phosphorylation. It counts as biochemical. Conditions: isolated TYK2 kinase domain, 1 nM enzyme, 25 uM ATP, Morrison tight binding model. The protocol: The activity of the isolated JAK1, JAK2 or TYK2 kinase domain was measured by monitoring phosphorylation of a peptide derived from JAK3 (Val-Ala-Leu-Val-Asp-Gly-Tyr-Phe-Arg-Leu-Thr-Thr) fluorescently labeled on the N-terminus with 5-carboxyfluorescein using the Caliper LabChip technology (Caliper Life Sciences, Hopkinton, Mass.). To determine the inhibition constants (Ki) of Examples 1-165, compounds were diluted serially in DMSO and added to 50 μL kinase reactions containing 1.5 nM JAK1, 0.2 nM purified JAK2 or 1 nM purified TYK2 enzyme, 100 mM Hepes pH7.2, 0.015% Brij-35, 1.5 uM peptide substrate, 25 uM ATP, 10 mM MgCl2, 4 mM DTT at a final DMSO concentration of 2%. Reactions were incubated at 22° C. in 384-well polypropylene microtiter plates for 30 minutes and then stopped by addition of 25 μL of an EDTA containing solution (100 mM Hepes pH 7.2, 0.015% Brij-35, 150 mM EDTA), resulting in a final EDTA concentration of 50 mM. After termination of the kinase reaction, the proportion of phosphorylated product was determined as a fraction of total peptide substrate using the Caliper LabChip 3000 according to the manufacturer's specifications. Ki values were then determined using the Morrison tight binding model. Morrison, J. F., Biochim. Biophys. Acta. 185:269-296 (1969); William, J. W. and Morrison, J. F., Meth. Enzymol., 63:437-467 (1979).
As for `O=C(Nc1nccc2nn(-c3c(Cl)cccc3Cl)cc12)C1CC1` [Example 1, N-(2-(2,6-Dichlorophenyl)-2H-pyrazolo[4,3-c]pyridin-4-yl)cyclopropanecarboxamide], affinity was put at a Ki of 1.3 nM.
Next, `Cc1cc(Nc2nccc3nn(-c4c(Cl)cccc4Cl)cc23)nc(C)n1` [Example 2, [2-(2,6-Dichlorophenyl)-2H-pyrazolo[4,3-c]pyridine-4-yl]-(2,6-dimethylpyrimidin-4-yl)amine]: 2 nM; `N#Cc1ccc(Nc2nccc3nn(-c4c(Cl)cccc4Cl)cc23)nc1` [Example 3, 6-[2-(2,6-Dichlorophenyl)-2H-pyrazolo[4,3-c]pyridin-4-ylamino]nicotinonitrile]: 3 nM; `COC(=O)Nc1nccc2nn(-c3c(Cl)cccc3Cl)cc12` [Example 6, [2-(2,6-Dichlorophenyl)-2H-pyrazolo[4,3-c]pyridine-4-yl]carbamic acid methyl ester]: 5.2 nM.
For `CNC(=O)Nc1nccc2nn(-c3c(Cl)cccc3Cl)cc12` [Example 7, 1-[2-(2,6-Dichlorophenyl)-2H-pyrazolo[4,3-c]pyridine-4-yl]-3-methylurea] the value was 3.3 nM.
For `O=C(Nc1nccc2nn(-c3c(F)cccc3Cl)cc12)C1CC1` [Example 15, N-(2-(2-chloro-6-fluorophenyl)-2H-pyrazolo[4,3-c]pyridin-4-yl)cyclopropanecarboxamide] the value was 1.6 nM; for `Cc1cc(Nc2ncc(Cl)c3nn(-c4c(Cl)cc(C#N)cc4Cl)cc23)ncn1` [Example 30, 3,5-Dichloro-4-[7-chloro-4-(6-methylpyrimidin-4-ylamino)pyrazolo[4,3-c]pyridin-2-yl]benzonitrile], 5.6 nM.
Regarding `N#Cc1cc(Cl)c(-n2cc3c(Nc4cc(N)ncn4)ncc(F)c3n2)c(Cl)c1` [Example 34, 4-[4-(6-Amino-pyrimidin-4-ylamino)-7-fluoro-pyrazolo[4,3-c]pyridin-2-yl]-3,5-dichlorobenzonitrile.HCl], the affinity, expressed as Ki, was 0.4 nM. This Ki is about 14-fold lower than that of the compound before.
Next, `OCc1cc(Nc2ncc(Br)c3nn(-c4c(Cl)cccc4Cl)cc23)ncn1` [Example 37, {6-[7-Bromo-2-(2,6-dichloro-phenyl)-2H-pyrazolo[4,3-c]pyridin-4-ylamino]-pyrimidin-4-yl}-methanol]: 0.4 nM; `N#Cc1cnc(Nc2cc(N)ncn2)c2cn(-c3c(Cl)cccc3Cl)nc12` [Example 40, 4-(6-Aminopyrimidin-4-ylamino)-2-(2,6-dichlorophenyl)-2H-pyrazolo[4,3-c]pyridine-7-carbonitrile]: 1.1 nM; `OCCN1CCN(c2cc(Nc3nccc4nn(-c5c(Cl)cccc5Cl)cc34)ncn2)CC1` [Example 49, 2-(4-(6-((2-(2,6-dichlorophenyl)-2H-pyrazolo[4,3-c]pyridin-4-yl)amino)-pyrimidin-4-yl)piperazin-1-yl)ethan-1-ol]: 1.9 nM.
Next, `Cc1cc(Nc2nccc3nn(-c4c(Cl)cccc4Cl)cc23)ncc1C#N` [Example 53, 6-[2-(2,6-Dichlorophenyl)-2H-pyrazolo[4,3-c]pyridin-4-ylamino]-4-methyl-nicotinonitrile]: 1 nM; `CS(=O)(=O)c1cc(Cl)c(-n2cc3c(NC(=O)C4CC4)nccc3n2)c(Cl)c1` [Example 67, N-(2-(2,6-dichloro-4-methane-sulphonyl-phenyl)-2H-pyrazolo[4,3-c]pyridine-4-yl)cyclopropane-carboxamide]: 14.9 nM; `N#Cc1cc(Cl)c(-n2cc3c(NC(=O)C4CC4)nccc3n2)c(Cl)c1` [Example 69, N-(2-(2,6-dichloro-4-cyanophenyl)-2H-pyrazolo[4,3-c]pyridin-4-yl)cyclopropane-carboxamide]: 2 nM.
For `Nc1cc(Nc2nccc3nn(-c4c(F)ccc(F)c4Cl)cc23)ncn1` [Example 81, N4-(2-(2-chloro-3,6-difluorophenyl)-2H-pyrazolo[4,3-c]pyridin-4-yl)pyrimidine-4,6-diamine] the value was 2.2 nM; for `CC(O)c1cc(Nc2ncc(F)c3nn(-c4c(Cl)cccc4C#N)cc23)ncn1` (stereo not shown) [Example 96, 3-Chloro-2-{7-fluoro-4-[6-(1-hydroxyethyl)-pyrimidin-4-ylamino]-pyrazolo[4,3-c]pyridin-2-yl}-benzonitrile], 0.8 nM.
With `N#Cc1cc(N)cc(Cl)c1-n1cc2c(Nc3cc(N)ncn3)ncc(F)c2n1` [Example 101, 5-Amino-2-[4-(6-aminopyrimidin-4-ylamino)-7-fluoropyrazolo[4,3-c]pyridin-2-yl]-3-chlorobenzonitrile formate salt], the Ki – broadly, a measure of affinity in units of concentration, obtained from inhibition or displacement – turned out to be 105 nM.
For `N#Cc1cccc(Cl)c1-n1cc2c(Nc3cc(N)ncn3)ncc(Cl)c2n1` [Example 151, 2-(4-(6-aminopyrimidin-4-ylamino)-7-chloro-2H-pyrazolo[4,3-c]pyridin-2-yl)-3-chlorobenzonitrile] the value was 0.1 nM; for `Cc1cc(Nc2cc(Cl)c(-n3cc4c(Nc5cc(C)ncn5)nccc4n3)c(C#N)c2)ncn1` [Example 158, 3-chloro-5-(6-methylpyrimidin-4-ylamino)-2-(4-(6-methylpyrimidin-4-ylamino)-2H-pyrazolo[4,3-c]pyridin-2-yl)benzonitrile], 1.8 nM.

Values taken from patent US9309240B2, “Pyrazolopyridine compounds, compositions and methods of use” (F. HOFFMANN-LA ROCHE AG, priority 2010, dated 2016).
